Laboratory results taken from PMC9133015 (Nature Communications, 2022).
Values joined by “and” are separate entries in the source; they are usually repeats but may differ in a detail not shown here. Equal entries are not always repeated.

Key:
[1] = test system: DU145 xenograft; assay: H&E and Ki67 staining of xenograft tumor tissues; format: in vivo, BALB/c nude mice; details: DU145, reference drug groups, replicates
[2] = test system: PC-3 xenograft; assay: In vivo antitumor activity, PC-3 xenograft mouse model; parameters: species or system BALB/c nude mice; details: Palbociclib group; for tumor volume (Figure S10a): in mm³ (unit assumed)
[3] = test system: DU145 cells; assay: Colony formation assay; format: cell-based, human; details: DU145, 2 μM, replicates
[4] = test system: 22Rv1 cells; assay: Colony formation assay; format: cell-based, human; details: 22Rv1, 0.5 μM, replicates
[5] = test system: DU145 cells; assay: Anti-proliferation activity assay (CCK8, 72 h); format: cell-based, human; details: DU145; for Relative proliferation rate (%) / optical density: replicates
[6] = test system: PC-3 cells; assay: Anti-proliferation activity assay (CCK8, 72 h); format: cell-based, human; details: PC-3; for Relative proliferation rate (%) / optical density: replicates
[7] = test system: RWPE-1 cells; assay: Anti-proliferation activity assay (CCK8, 72 h); format: cell-based; details: RWPE1; for Relative proliferation rate (%) / optical density: replicates
[8] = test system: DU145 cells; assay: Cell cycle assay (PI flow cytometry); format: cell-based, human; details: DU145, 2 μM, replicates
[9] = test system: PC-3 cells; assay: Cell cycle assay (PI flow cytometry); format: cell-based, human; details: PC-3, 2 µM, replicates
[10] = test system: 22Rv1 cells; assay: Cell cycle assay (PI flow cytometry); format: cell-based, human; details: 22Rv1, 0.5 μM, replicates

SMILES: CC(=O)c1c(C)c2cnc(Nc3ccc(N4CCNCC4)cn3)nc2n(C2CCCC2)c1=O [palbociclib]
- Positive rate ( % ) (Fig. 7f) [1]: 31.83% and 31.88% and 31.79%
- body weight (Figure S10b) ([2]; day 1, individual mice, in g (unit assumed)): 20.3 and 18.7 and 20.4 and 19.9 and 20.5 and 20.1 and 19.3 and 19.6
- tumor volume (Figure S10a) ([2]; day 1, individual mice): 71.756 and 85.3384 and 76.4514 and 97.6139 and 96.2115 and 81.8398 and 86.3514 and 80.8996
- body weight (Figure S10b) ([2]; day 3, individual mice): 20.6 (2×) and 19.9 (2×) and 20.3 (2×) and 20.4 and 19.5
- tumor volume (Figure S10a) ([2]; day 3, individual mice): 100.82 and 125.949 and 118.537 and 171.398 and 182.064 and 137.067 and 104.176 and 152.65
- body weight (Figure S10b) ([2]; day 5, individual mice, in g (unit assumed)): 20.8 and 20.1 and 20.9 and 20.5 and 20.7 and 20.6 and 19.4 and 20.3
- tumor volume (Figure S10a) ([2]; day 5, individual mice): 153.25 and 178.1 and 171.863 and 263.764 and 233.187 and 184.767 and 136.023 and 212
- body weight (Figure S10b) ([2]; day 7, individual mice): 21.1 (2×) and 20.4 (3×) and 20.6 and 20.9 and 19.6
- tumor volume (Figure S10a) ([2]; day 7, individual mice): 216.949 and 236.787 and 227.898 and 326.971 and 317.909 and 235.081 and 192.895 and 301.873
- body weight (Figure S10b) ([2]; day 9, individual mice): 21.3 and 20.2 and 21.1 and 20.9 (2×) and 21.2 and 20.1 and 19.8
- tumor volume (Figure S10a) ([2]; day 9, individual mice): 326.253 and 371.781 and 295.973 and 465.763 and 471.469 and 352.991 and 279.054 and 463.034
- body weight (Figure S10b) ([2]; day 11, individual mice): 21 and 20.5 and 21.4 and 21.2 and 21.5 (2×) and 20.3 and 20.1
- tumor volume (Figure S10a) ([2]; day 11, individual mice): 372.859 and 454.695 and 359.079 and 528.072 and 529.867 and 450.398 and 332.776 and 546.405
- body weight (Figure S10b) ([2]; day 13, individual mice, in g (unit assumed)): 21.3 and 20.8 and 21.6 and 21.5 and 22 and 20.7 and 20.4 and 21.8
- tumor volume (Figure S10a) ([2]; day 13, individual mice): 420.513 and 508.608 and 384.455 and 605.279 and 564.127 and 444.148 and 375.063 and 606.531
- body weight (Figure S10b) ([2]; day 15, individual mice): 21.1 and 20.8 and 21.3 and 21.6 and 22.2 (2×) and 20.3 and 20.7
- tumor volume (Figure S10a) ([2]; day 15, individual mice): 457.463 and 542.009 and 415.332 and 636.893 and 637.934 and 467.888 and 410.165 and 646.315
- body weight (Figure S10b) ([2]; day 17, individual mice, in g (unit assumed)): 21.5 and 21.1 and 21.7 and 22 and 22.3 and 20.6 and 21 and 22.4
- tumor volume (Figure S10a) ([2]; day 17, individual mice): 524.733 and 575.217 and 457.759 and 764.115 and 735.045 and 549.485 and 474.267 and 700.215
- body weight (Figure S10b) ([2]; day 19, individual mice, in g (unit assumed)): 21.8 and 21.4 and 22 and 22.2 and 22.5 and 20.9 and 21.1 and 22.7
- tumor volume (Figure S10a) ([2]; day 19, individual mice): 535.372 and 736.543 and 494.255 and 792.24 and 789.87 and 530.997 and 470.291 and 757.507
- body weight (Figure S10b) ([2]; day 21, individual mice): 22.2 (2×) and 21.8 and 22.6 and 23 and 21.2 and 21.5 and 22.9
- tumor volume (Figure S10a) ([2]; day 21, individual mice): 606.966 and 810.199 and 550.471 and 875.109 and 842.441 and 533.366 and 544.597 and 821.393
- body weight (Figure S10b) ([2]; day 23, individual mice, in g (unit assumed)): 22.4 and 21.9 and 22.5 and 22.9 and 23.5 and 21.6 and 21.7 and 23.3
- tumor volume (Figure S10a) ([2]; day 23, individual mice): 636.352 and 826.869 and 562.019 and 936.064 and 895.067 and 564.812 and 586.01 and 861.421
- body weight (Figure S10b) ([2]; day 25, individual mice, in g (unit assumed)): 22.7 and 22.2 and 22.8 and 23.3
- tumor volume (Figure S10a) ([2]; day 25, individual mice): 672.525 and 833.997 and 554.501 and 942.419
- tumor weight (Figure S10c) ([2]; individual mice, in g (unit assumed)): 0.86 and 0.74 and 1.05 and 0.97 and 0.73 and 0.85 and 0.69 and 0.92
- Colony formation (cell number) [3]: 150 cell number and 158 cell number and 148 cell number
- Colony formation (cell number) [4]: 250 cell number and 274 cell number and 246 cell number
- Relative proliferation rate (%) mean ([5]; 0.0049 uM): 4.824%
- Relative proliferation rate (%) ([5]; 0.0049 uM): 3.385% and 4.869% and 6.219%
- optical density ([5]; 0.0049 uM): 0.999 and 1.016 and 0.95
- Relative proliferation rate (%) mean ([5]; 0.078 uM): 19.5052%
- Relative proliferation rate (%) ([5]; 0.078 uM): 16.5377% and 19.5693% and 22.4087%
- optical density ([5]; 0.078 uM): 0.863 and 0.859 and 0.786
- Relative proliferation rate (%) mean ([5]; 0.3125 uM): 28.7249%
- Relative proliferation rate (%) ([5]; 0.3125 uM): 24.9516% and 28.7453% and 32.4778%
- optical density ([5]; 0.3125 uM): 0.776 and 0.761 and 0.684
- Relative proliferation rate (%) mean ([5]; 1.25 uM): 33.0518%
- Relative proliferation rate (%) ([5]; 1.25 uM): 30.3675% and 33.0524% and 35.7354%
- optical density ([5]; 1.25 uM): 0.720 and 0.715 and 0.651
- Relative proliferation rate (%) mean ([5]; 5 uM): 54.1864%
- Relative proliferation rate (%) ([5]; 5 uM): 49.8066% and 54.2135% and 58.539%
- optical density ([5]; 5 uM): 0.519 and 0.489 and 0.420
- Relative proliferation rate (%) mean ([5]; 20 uM): 62.4741%
- Relative proliferation rate (%) ([5]; 20 uM): 57.4468% and 62.4532% and 67.5222%
- optical density ([5]; 20 uM): 0.440 and 0.401 and 0.329
- Relative proliferation rate (%) mean ([5]; 80 uM): 75.0057%
- Relative proliferation rate (%) ([5]; 80 uM): 68.472% and 74.9064% and 81.6387%
- optical density ([5]; 80 uM): 0.326 and 0.268 and 0.186
- Relative proliferation rate (%) mean ([6]; 0.078 uM): 8.515%
- Relative proliferation rate (%) ([6]; 0.078 uM): 4.665% and 8.515% and 12.3646%
- optical density ([6]; 0.078 uM): 0.981 and 0.967 and 0.971
- Relative proliferation rate (%) mean ([6]; 0.3125 uM): 12.5396%
- Relative proliferation rate (%) ([6]; 0.3125 uM): 9.427% and 12.4882% and 15.704%
- optical density ([6]; 0.3125 uM): 0.932 and 0.925 and 0.934
- Relative proliferation rate (%) mean ([6]; 1.25 uM): 26.3574%
- Relative proliferation rate (%) ([6]; 1.25 uM): 21.0884% and 26.3955% and 31.5884%
- optical density ([6]; 1.25 uM): 0.812 and 0.778 and 0.758
- Relative proliferation rate (%) mean ([6]; 5 uM): 54.2128%
- Relative proliferation rate (%) ([6]; 5 uM): 49.8542% and 54.21% and 58.574%
- optical density ([6]; 5 uM): 0.516 and 0.484 and 0.459
- Relative proliferation rate (%) mean ([6]; 20 uM): 74.7111%
- Relative proliferation rate (%) ([6]; 20 uM): 68.7075% and 74.7398% and 80.6859%
- optical density ([6]; 20 uM): 0.322 and 0.267 and 0.214
- Relative proliferation rate (%) mean ([6]; 80 uM): 84.0905%
- Relative proliferation rate (%) ([6]; 80 uM): 77.7454% and 83.8221% and 90.704%
- optical density ([6]; 80 uM): 0.229 and 0.171 and 0.103
- Relative proliferation rate (%) mean ([7]; 0.078 uM): 4.3459%
- Relative proliferation rate (%) ([7]; 0.078 uM): 2.8348% and 5.899% and 4.304%
- optical density ([7]; 0.078 uM): 0.994 and 1.005 and 1.045
- Relative proliferation rate (%) mean ([7]; 0.3125 uM): 4.485%
- Relative proliferation rate (%) ([7]; 0.3125 uM): 1.76% and 7.21% and 4.487%
- optical density ([7]; 0.3125 uM): 1.005 and 0.991 and 1.043
- Relative proliferation rate (%) mean ([7]; 1.25 uM): 11.7464%
- Relative proliferation rate (%) ([7]; 1.25 uM): 7.038% and 16.4794% and 11.7216%
- optical density ([7]; 1.25 uM): 0.951 and 0.892 and 0.964
- Relative proliferation rate (%) mean ([7]; 5 uM): 24.554%
- Relative proliferation rate (%) ([7]; 5 uM): 19.1593% and 29.8689% and 24.6337%
- optical density ([7]; 5 uM): 0.827 and 0.749 and 0.823
- Relative proliferation rate (%) mean ([7]; 20 uM): 55.5924%
- Relative proliferation rate (%) ([7]; 20 uM): 50.0489% and 61.1423% and 55.5861%
- optical density ([7]; 20 uM): 0.511 and 0.415 and 0.485
- Relative proliferation rate (%) mean ([7]; 80 uM): 75.0851%
- Relative proliferation rate (%) ([7]; 80 uM): 68.3284% and 81.8352% and 75.0916%
- optical density ([7]; 80 uM): 0.324 and 0.194 and 0.272
- Cell cycle percentages ( % ) G0/G1 [8]: 59.02% and 61.19% and 64.25%
- Cell cycle percentages ( % ) G2/M [8]: 23.03% and 20.58% and 18.04%
- Cell cycle percentages ( % ) S [8]: 17.95% and 18.23% and 19.71%
- Cell cycle percentages ( % ) G0/G1 ([9]; G0/G1): 84.02% and 87.57% and 88.06%
- Cell cycle percentages ( % ) G2/M ([9]; G2/M): 10.01% and 8.39% and 8.02%
- Cell cycle percentages ( % ) S ([9]; S): 5.97% and 4.04% and 3.92%
- Cell cycle percentages ( % ) G0/G1 [10]: 79.03% and 81.73% and 83.36%
- Cell cycle percentages ( % ) G2/M [10]: 9.98% and 8.76% and 8.18%
- Cell cycle percentages ( % ) S [10]: 10.99% and 9.51% and 8.46%
